Source: ChEMBL document CHEMBL5653615 (J Biol Chem, 2013)

What was measured:
[1] = biological target: Calcium/calmodulin-dependent protein kinase type 1 (Homo sapiens) (UniProt Q14012); assay: Inhibition of human CAMK1a at 500 nM by HotSpot assay relative to control
[2] = biological target: Mitogen-activated protein kinase 3 (Homo sapiens) (UniProt P27361); assay: Inhibition of human ERK1 at 500 nM by HotSpot assay relative to control
[3] = biological target: Ribosomal protein S6 kinase alpha-5 (Homo sapiens) (UniProt O75582); assay: Inhibition of human RPS6KA5 at 500 nM by HotSpot assay relative to control
Chain of Ribosomal protein S6 kinase alpha-5 (Homo sapiens) (O75582 whole entry, looked up): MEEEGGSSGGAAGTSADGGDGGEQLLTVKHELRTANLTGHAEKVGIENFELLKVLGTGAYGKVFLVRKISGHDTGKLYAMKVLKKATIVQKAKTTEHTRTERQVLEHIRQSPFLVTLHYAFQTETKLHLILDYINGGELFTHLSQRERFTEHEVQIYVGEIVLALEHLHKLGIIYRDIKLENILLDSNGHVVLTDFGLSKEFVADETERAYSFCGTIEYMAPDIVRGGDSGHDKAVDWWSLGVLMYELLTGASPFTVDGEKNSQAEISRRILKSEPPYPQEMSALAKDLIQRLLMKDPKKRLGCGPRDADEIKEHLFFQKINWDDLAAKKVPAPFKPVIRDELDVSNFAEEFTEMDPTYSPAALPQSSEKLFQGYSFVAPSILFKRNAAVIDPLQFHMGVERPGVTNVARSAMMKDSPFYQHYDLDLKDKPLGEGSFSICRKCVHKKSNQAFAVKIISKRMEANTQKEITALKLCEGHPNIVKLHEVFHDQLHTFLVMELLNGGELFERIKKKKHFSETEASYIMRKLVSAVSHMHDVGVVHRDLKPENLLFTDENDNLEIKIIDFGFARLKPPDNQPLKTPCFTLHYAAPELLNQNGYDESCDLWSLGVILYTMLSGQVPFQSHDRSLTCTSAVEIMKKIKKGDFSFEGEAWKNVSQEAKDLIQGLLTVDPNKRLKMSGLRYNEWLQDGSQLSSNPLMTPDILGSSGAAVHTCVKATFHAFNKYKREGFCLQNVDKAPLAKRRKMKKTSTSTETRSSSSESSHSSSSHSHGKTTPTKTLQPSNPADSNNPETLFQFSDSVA

[4] = biological target: SRSF protein kinase 1 (Homo sapiens) (UniProt Q96SB4); assay: Inhibition of human SRPK1 at 500 nM by HotSpot assay relative to control
Chain of SRSF protein kinase 1 (Homo sapiens) (Q96SB4 whole entry): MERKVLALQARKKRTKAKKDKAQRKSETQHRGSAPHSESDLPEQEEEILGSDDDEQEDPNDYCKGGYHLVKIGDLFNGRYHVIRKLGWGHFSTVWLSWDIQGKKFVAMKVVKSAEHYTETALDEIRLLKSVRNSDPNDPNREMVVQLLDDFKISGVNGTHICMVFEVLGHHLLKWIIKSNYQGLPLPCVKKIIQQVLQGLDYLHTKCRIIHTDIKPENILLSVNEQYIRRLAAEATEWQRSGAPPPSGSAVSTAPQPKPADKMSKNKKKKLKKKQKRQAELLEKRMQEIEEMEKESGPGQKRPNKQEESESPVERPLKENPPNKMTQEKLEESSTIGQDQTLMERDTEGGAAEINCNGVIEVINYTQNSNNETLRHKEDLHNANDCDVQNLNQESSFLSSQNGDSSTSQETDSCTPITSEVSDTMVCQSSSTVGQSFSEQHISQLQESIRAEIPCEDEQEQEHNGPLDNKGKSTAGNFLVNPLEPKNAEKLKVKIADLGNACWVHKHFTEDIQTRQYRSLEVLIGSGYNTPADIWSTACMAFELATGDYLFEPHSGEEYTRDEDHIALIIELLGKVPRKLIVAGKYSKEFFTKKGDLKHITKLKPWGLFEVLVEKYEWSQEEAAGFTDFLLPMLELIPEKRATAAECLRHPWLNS

[5] = biological target: T1, Tyrosine-protein kinase ZAP-70 (Homo sapiens) (UniProt P43403); assay: Inhibition of human ZAP70 at 500 nM by HotSpot assay relative to control
T1 sequence (whole entry): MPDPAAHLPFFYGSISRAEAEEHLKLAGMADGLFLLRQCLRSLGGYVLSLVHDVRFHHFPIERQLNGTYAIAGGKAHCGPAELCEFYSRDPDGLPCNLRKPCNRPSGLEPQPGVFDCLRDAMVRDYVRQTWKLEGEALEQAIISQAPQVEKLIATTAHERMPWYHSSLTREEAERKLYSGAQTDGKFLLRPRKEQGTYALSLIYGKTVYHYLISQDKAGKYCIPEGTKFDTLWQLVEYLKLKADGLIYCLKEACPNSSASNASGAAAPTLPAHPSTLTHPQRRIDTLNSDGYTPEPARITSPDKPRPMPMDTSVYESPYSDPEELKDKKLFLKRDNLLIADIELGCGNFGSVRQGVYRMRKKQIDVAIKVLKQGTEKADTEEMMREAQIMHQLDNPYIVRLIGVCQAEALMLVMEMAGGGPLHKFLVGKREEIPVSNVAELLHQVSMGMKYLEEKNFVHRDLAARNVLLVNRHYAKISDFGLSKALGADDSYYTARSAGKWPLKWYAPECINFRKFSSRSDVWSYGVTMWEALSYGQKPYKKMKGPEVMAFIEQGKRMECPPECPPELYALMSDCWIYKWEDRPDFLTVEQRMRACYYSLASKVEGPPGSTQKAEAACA

[6] = biological target: T2, Serine/threonine-protein kinase 4 (Homo sapiens) (UniProt Q13043); assay: Inhibition of human STK4 at 500 nM by HotSpot assay relative to control
T2 sequence (whole entry): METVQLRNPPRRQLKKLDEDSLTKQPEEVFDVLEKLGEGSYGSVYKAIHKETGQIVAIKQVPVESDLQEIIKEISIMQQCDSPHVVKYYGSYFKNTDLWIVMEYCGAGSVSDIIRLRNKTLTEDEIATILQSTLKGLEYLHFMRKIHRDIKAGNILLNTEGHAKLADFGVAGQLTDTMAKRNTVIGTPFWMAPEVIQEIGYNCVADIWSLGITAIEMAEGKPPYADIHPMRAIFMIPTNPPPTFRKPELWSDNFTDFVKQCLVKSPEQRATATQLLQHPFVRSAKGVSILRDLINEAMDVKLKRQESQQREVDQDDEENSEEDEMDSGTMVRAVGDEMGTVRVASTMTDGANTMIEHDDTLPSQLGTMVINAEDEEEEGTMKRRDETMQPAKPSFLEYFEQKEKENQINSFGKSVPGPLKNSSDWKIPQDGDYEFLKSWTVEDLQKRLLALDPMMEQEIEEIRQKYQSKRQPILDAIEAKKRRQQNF

[7] = biological target: T3, Serine/threonine-protein kinase TAO1 (Homo sapiens) (UniProt Q7L7X3); assay: Inhibition of human TAOK1 at 500 nM by HotSpot assay relative to control
T3 sequence (whole entry): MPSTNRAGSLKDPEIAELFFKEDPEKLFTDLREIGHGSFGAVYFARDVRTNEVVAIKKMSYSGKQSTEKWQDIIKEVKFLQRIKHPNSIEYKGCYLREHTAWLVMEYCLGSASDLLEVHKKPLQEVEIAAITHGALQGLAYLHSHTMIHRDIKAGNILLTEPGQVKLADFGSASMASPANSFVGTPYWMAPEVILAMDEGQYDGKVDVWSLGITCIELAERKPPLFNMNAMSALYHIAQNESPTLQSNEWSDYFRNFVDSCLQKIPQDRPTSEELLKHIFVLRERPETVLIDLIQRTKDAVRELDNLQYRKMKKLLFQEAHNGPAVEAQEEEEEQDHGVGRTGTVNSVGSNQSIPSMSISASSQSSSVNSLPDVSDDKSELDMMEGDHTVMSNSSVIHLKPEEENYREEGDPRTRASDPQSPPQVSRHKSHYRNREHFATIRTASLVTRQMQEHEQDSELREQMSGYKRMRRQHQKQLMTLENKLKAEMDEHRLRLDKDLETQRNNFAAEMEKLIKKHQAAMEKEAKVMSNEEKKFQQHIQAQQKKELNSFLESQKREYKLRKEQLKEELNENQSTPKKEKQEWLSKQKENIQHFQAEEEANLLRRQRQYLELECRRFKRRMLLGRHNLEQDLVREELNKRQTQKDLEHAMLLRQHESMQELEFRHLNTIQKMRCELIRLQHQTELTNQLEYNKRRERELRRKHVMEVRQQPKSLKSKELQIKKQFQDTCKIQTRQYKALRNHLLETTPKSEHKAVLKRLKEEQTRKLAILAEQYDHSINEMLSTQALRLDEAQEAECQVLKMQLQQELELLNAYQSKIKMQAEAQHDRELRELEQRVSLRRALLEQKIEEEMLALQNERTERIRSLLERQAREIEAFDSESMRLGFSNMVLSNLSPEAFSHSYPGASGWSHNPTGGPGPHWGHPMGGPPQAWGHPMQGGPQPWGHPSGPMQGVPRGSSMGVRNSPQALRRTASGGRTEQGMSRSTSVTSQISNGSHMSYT

Chain of Calcium/calmodulin-dependent protein kinase type 1 (Homo sapiens) (Q14012 whole entry, looked up): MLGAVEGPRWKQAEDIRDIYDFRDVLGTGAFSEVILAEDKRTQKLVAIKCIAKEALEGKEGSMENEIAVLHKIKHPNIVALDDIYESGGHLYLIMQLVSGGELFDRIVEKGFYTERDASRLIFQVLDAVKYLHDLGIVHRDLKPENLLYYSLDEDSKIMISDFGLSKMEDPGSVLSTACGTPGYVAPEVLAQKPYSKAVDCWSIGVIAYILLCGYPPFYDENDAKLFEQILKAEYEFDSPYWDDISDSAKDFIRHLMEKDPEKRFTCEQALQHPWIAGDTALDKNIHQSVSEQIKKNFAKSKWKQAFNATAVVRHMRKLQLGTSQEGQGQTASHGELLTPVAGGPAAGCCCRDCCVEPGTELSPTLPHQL
Chain of Mitogen-activated protein kinase 3 (Homo sapiens) (P27361 whole entry): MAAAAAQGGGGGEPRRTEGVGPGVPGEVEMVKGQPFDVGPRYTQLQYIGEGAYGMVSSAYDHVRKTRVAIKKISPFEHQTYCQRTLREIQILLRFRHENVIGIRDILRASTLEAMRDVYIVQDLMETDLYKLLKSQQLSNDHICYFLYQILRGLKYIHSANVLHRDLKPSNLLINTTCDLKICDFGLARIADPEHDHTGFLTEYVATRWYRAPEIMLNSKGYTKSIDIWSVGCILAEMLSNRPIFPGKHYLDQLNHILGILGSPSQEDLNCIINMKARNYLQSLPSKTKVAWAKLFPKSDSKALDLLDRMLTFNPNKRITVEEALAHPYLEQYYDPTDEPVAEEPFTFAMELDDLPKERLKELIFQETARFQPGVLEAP

Structure (SMILES)	inhibition [1] [%]	inhibition [2] [%]	inhibition [3] [%]	inhibition [4] [%]	inhibition [5] [%]	inhibition [6] [%]	inhibition [7] [%]
Nc1n[nH]c2nnc(-c3c(-c4ccccc4)nn4ccccc34)cc12	-2.35	34.2	-1.32	16.3	9.86	0.86	4.2
Oc1n[nH]c2nnc(-c3c(-c4ccccc4)nn4ccccc34)cc12	0.02	-2.01	-5.1	10.4	5.7	-0.48	1.61
